{"source": "patent US20090048304A1", "about": "“Crystal Form of Besipirdine Chlorhydrate, Process Preparation and Use Thereof” (UROGENE, priority 2006, published 2009)", "key": {"[1]": {"conditions": "for Stability of the crystal form in maturation studies (summary in words): all tested conditions: 25, 50, 80 °C, 8 or 72 hours, n-butyl-acetate; for Form(s) identified after maturation: maturation time 8 hours, 100 mg suspension in 2 ml n-butyl-acetate", "experimental": "100 mg suspensions of the different polymorphic forms, separated or in mixtures, in 2 ml of n-butyl-acetate, were left for maturation during 8 or 72 hours at different temperatures."}, "[2]": {"test_system": "bladder contractions induced by bladder irritation", "conditions": "in vivo, in rats; according to WO02/064126; cited from earlier work"}, "[3]": {"conditions": "storage conditions at room temperature, use and storing conditions of the powder"}}, "note": "Like-named read-outs stand apart in the source and are kept apart here."}
{"smiles": "CCCN(c1ccncc1)n1ccc2ccccc21.Cl", "note": "[Form II, N-propyl-N-(4-pyridinyl)-1H-indol-1-amine chlorhydrate]", "values": [{"measurement": "Stability of the crystal form in maturation studies (summary in words)", "setting": "[1]", "result": "appears to be a stable form"}]}
{"smiles": "CCCN(c1ccncc1)n1ccc2ccccc21.Cl", "note": "[I + II, N-propyl-N-(4-pyridinyl)-1H-indol-1-amine chlorhydrate]", "values": [{"measurement": "Form(s) identified after maturation", "setting": "[1]; 25 °C", "result": "I + II"}, {"measurement": "Form(s) identified after maturation", "setting": "[1]; 50 °C", "result": "I + II"}, {"measurement": "Form(s) identified after maturation", "setting": "[1]; 80 °C", "result": "I + II"}, {"measurement": "Stability of the crystal form in maturation studies (summary in words)", "setting": "[1]; listed as mixture of forms I and II", "result": "changes towards form I"}]}
{"smiles": "CCCN(c1ccncc1)n1ccc2ccccc21.Cl", "note": "[Form III, N-propyl-N-(4-pyridinyl)-1H-indol-1-amine chlorhydrate]", "values": [{"measurement": "Stability of the crystal form in maturation studies (summary in words)", "setting": "[1]", "result": "quickly turns into form I"}]}
{"smiles": "CCCN(c1ccncc1F)n1cc(C)c2ccccc21", "note": "[HP184, N-(3-fluoro-4-pyridinyl)-N-propyl-3-methyl-1H-indol-1-amine]", "values": [{"measurement": "Frequency of bladder contractions induced by bladder irritation", "setting": "[2]", "result": "slightly decrease the frequency of bladder contractions"}]}
{"smiles": "CCCN(c1ccncc1)n1ccc2ccccc21.Cl", "note": "[Form I, N-propyl-N-(4-pyridinyl)-1H-indol-1-amine chlorhydrate]", "values": [{"measurement": "Change of the polymorphic form with time on storage", "setting": "[3]", "result": "does not evolve with time"}, {"measurement": "Change of the polymorphic form with time on storage", "setting": "[3]; listed as Polymorphic form I of besipirdine.HCl", "result": "thermodynamically the most stable of all characterized forms"}, {"measurement": "Stability of the crystal form in maturation studies (summary in words)", "setting": "[1]", "result": "stable"}, {"measurement": "Stability of the crystal form in maturation studies (summary in words)", "setting": "[1]; listed as form I", "result": "thermodynamically the most stable of the three crystal forms"}]}
